What was measured:
[1] = system: electroshock-induced tonic hind limb extensor seizure (MEST) in the mouse; assay: Maximal electroshock seizure threshold (MEST) test in the mouse, Example 2; conditions: for CC50 +/- SEM: vehicle CC50 21.0
Description: The efficacy of CBD-C6 was tested in a mouse model of seizure, the maximal electroshock seizure threshold (MEST) test.
The maximal electroshock seizure threshold (MEST) test is widely utilized preclinically to evaluate pro- and anti-convulsant properties of molecules (Loscher et al., 1991).
In the MEST test the ability of a drug to alter the seizure threshold current required to induce hind limb tonic extensor convulsions is measured according to an “up and down” method of shock titration (Kimball et al., 1957). An increase in seizure threshold is indicative of anti-convulsant effect.
Naïve mice were acclimatised to the procedure room in their home cages, with food and water available ad libitum.
Animals were dosed i.p. according to dose group.
The vehicle (10 ml/kg i.p. 60 min pre-treatment time) was 1:1:18 vehicle 5% ethanol, 5% kolliphor EL, 90% saline.
The test compound, CBD-C6 was administered at doses of 10, 30 and 100 mg/kg given at 10 ml/kg i.p. 180 min pre-treatment time.
Mice were individually assessed for the production of a tonic hind limb extensor seizure using a Hugo Sachs Electronik stimulator, which delivered an adjustable constant current (1-300 mA) of 0.1 s duration via corneal electrodes.
The stimulus intensity was varied by an ‘up and down’ method of shock titration.
This procedure continued for all mice within the treatment group. Data generated from treatment group of n=12 was used to calculate the CC50±s.e.m. values according to the method of Kimball et al. (1957).
Induction of seizure is measured as an all-or-nothing effect scored as either present (+) or absent (0) for each animal.
Data was analysed by comparing treated groups with the appropriate vehicle control using Fisher's Exact Probability tests.

[2] = system: electroshock-induced generalised seizure threshold (MEST) in the mouse; assay: Maximal electroshock seizure threshold (MEST) test in the mouse, Example 3; conditions: for CC50 ± SEM: vehicle CC50 24.3
Description: The efficacy of CBD-C6 was tested in a mouse model of generalised seizure, the maximal electroshock seizure threshold (MEST) test as described in Example 2.
Naïve mice were acclimatised to the procedure room in their home cages for up to 7 days, with food and water available ad libitum.
All animals were weighed at the beginning of the study and randomly assigned to treatment groups based on a mean distribution of body weight across groups.
The first animal within a treatment group was given a shock at the expected or estimated CC50 current. For subsequent animals, the current was lowered or raised depending on the convulsions outcome from the preceding animal.
Data generated from each treatment group were used to calculate the CC50±SEM values for the treatment group.
Vehicle: (5% ethanol, 5% solutol, 90% Saline) was prepared as follows: 1 mL of ethanol, 1 mL of solutol were warmed to 60° C., in 18 mL of saline (1:1:18).
The test compound, CBD-C6 was prepared according to the method described in Example 1. CBD-C6 was administered at 10, 30 and 100 mg/kg (i.p.) in a 1:1:18 ethanol:solutol:0.9% saline formulation.
CBD-C6 effects were also calculated as percentage change in CC50 from the vehicle control group. Significant difference between drug-treated animals and controls were assessed according to Litchfield and Wilcoxon (1949).

[3] = 10 mg/kg i.p., 180 min pre-treatment
[4] = 30 mg/kg i.p., 180 min pre-treatment
[5] = 100 mg/kg i.p., 180 min pre-treatment
[6] = 10 mg/kg i.p., 60 min pre-treatment
[7] = 30 mg/kg i.p., 60 min pre-treatment
[8] = 100 mg/kg i.p., 120 min pre-treatment
[9] = 2.5 mg/kg i.p., 30 min pre-treatment

Question: Which “% change from vehicle (CC50)” value [1, 3] does the source give for `C=C(C)[C@@H]1CCC(C)=C[C@H]1c1c(O)cc(CCCCCC)cc1O` [CBD-C6, Cannabidiol-C6] here?
Answer: Its value is 11%.

Question: And the “CC50 +/- SEM” value [1, 3]?
Answer: Its value is 23.4 mA.

Question: And the “% change from vehicle (CC50)” value [1, 4]?
Answer: Its value is 63%.

Question: And the “CC50 +/- SEM” value [1, 4]?
Answer: The value was 34.3 mA.

Question: And the “% change from vehicle (CC50)” value [1, 5]?
Answer: Its value is 376%.

Question: And the “CC50 +/- SEM” value [1, 5]?
Answer: Its value is >100 mA.

Question: What about the “% change from vehicle (CC50)” value [2, 6] of the same compound?
Answer: The value was 27%.

Question: And the “CC50 ± SEM” value [2, 6]?
Answer: Its value is 30.8 ± 1.9 mA.

Question: And the “% change from vehicle (CC50)” value [2, 7]?
Answer: The value was 29%.

Question: And the “CC50 ± SEM” value [2, 7]?
Answer: Its value is 31.5 ± 1.0 mA.

Question: And the “% change from vehicle (CC50)” value [2, 8]?
Answer: Its value is 239%.

Question: What about the “CC50 ± SEM” value [2, 8] of the same compound?
Answer: Its value is 82.5 ± 0.7 mA.

Question: And the “effect on MEST (in words)” value ([2]; 10, 30 and 100 mg/kg i.p., compared to vehicle)?
Answer: Its value is “dose-related increase in MEST”.

Question: What does the source list for `CN1C(=O)CN=C(c2ccccc2)c2cc(Cl)ccc21` [Diazepam, diazepam, reference compound]?
Answer: % change from vehicle (CC50) [1, 9]: 40%; % change from vehicle (CC50) [2, 9]: 255%

Question: `CCCC(CCC)C(=O)[O-].[Na+]` [Sodium Valproate, sodium valproate, reference compound] was tested. Which “% change from vehicle (CC50)” value ([2]; 250 mg/kg i.p., 30 min pre-treatment) did it give?
Answer: Its value is 1057%.
